Our source for the IC50 values is patent US10005767B2, “Compositions and methods for inhibition of the JAK pathway” (Rigel Pharmaceuticals, Inc., priority 2009, dated 2018).

In one assay the test system is human primary T-cells, IL-2 stimulated proliferation (JAK-1 and JAK-3 dependent; reported as JAK3 activity). Nature of the assay: Human primary T-cell proliferation stimulated by IL-2 (Example 3). Type of assay: cell-based. The note with it: Homo sapiens, T-cell, tested under conditions described in Example 3 (IL-2 stimulated human primary T-cell proliferation); read-out: ability to inhibit JAK3 activity, IC50 range (Table V). A digest of the protocol: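 Peripheral-blood human T-cells pre-activated via TCR/CD28, IL-2-starved overnight, then cultured 72 h at 37 °C with compound in Yssel's medium containing IL-2 (80 U/mL in cell suspension). Proliferation read as viable-cell ATP by CellTiter-Glo luminescence; reduction versus control taken as JAK pathway inhibition.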
For the compound `Cc1cnc(Nc2ccc(-c3ccncc3)c(F)c2)nc1Nc1ccc2oc(=O)[nH]c2c1` [Compound I-484, 5-(2-(3-fluoro-4-(pyridin-4-yl)phenylamino)-5-methylpyrimidin-4-ylamino)benzo[d]oxazol-2(3H)-one], the IC50 lay in the range of 500 to 5000 nM. For the compound `Cc1cc(Nc2ncc(C)c(Nc3ccc4oc(=O)[nH]c4c3)n2)cnc1C` [II-153, N2-(2,3-dimethylpyridin-5-yl)-5-methyl-N4-(2-oxo-2,3-dihydro-1,3-benzoxazol-5-yl)-2,4-pyrimidinediamine], the IC50 was less than 500 nM.

`Cc1cnc(Nc2cnc(C3CC4CCC(C3)N4)c(C)c2)nc1Nc1ccc2oc(=O)[nH]c2c1` (stereo not drawn) [II-66, 5-(2-(6-(8-aza-bicyclo[3.2.1]octan-3-yl)-5-methylpyridin-3-ylamino)-5-methylpyrimidin-4-ylamino)benzo[d]oxazol-2(3H)-one]: the concentration for half-maximal inhibition (IC50) was in the range of 500 to 5000 nM.

As for `Cc1cnc(Nc2ccc(N3CCOCC3)nc2)nc1Nc1cc(F)c2oc(=O)[nH]c2c1` [II-76, 7-fluoro-5-(5-methyl-2-(6-morpholinopyridin-3-ylamino)pyrimidin-4-ylamino)benzo[d]oxazol-2(3H)-one], the IC50 is less than 500 nM. With `Cc1cnc(Nc2ccc(C(C)(C)C)cc2)nc1Nc1ccc2oc(=O)[nH]c2c1` [Compound I-420, 5-(2-(4-tert-butylphenylamino)-5-methylpyrimidin-4-ylamino)benzo[d]oxazol-2(3H)-one], the IC50 is less than 500 nM. As to `Cc1cnc(Nc2cnc(N3CCN(C)CC3)c(C(F)(F)F)c2)nc1Nc1ccc2oc(=O)[nH]c2c1` [II-39, N4-(benzo[d]oxazolin-2(3H)-on-5-yl)-N2-[3-trifluoromethyl-2-(4-methylpiperazin-1-yl)pyridin-5-yl]-5-methylpyrimidine-2,4-diamine], the IC50 is less than 500 nM.

In the case of `COc1cc(Nc2ncc(C)c(Nc3cc(F)c4oc(=O)[nH]c4c3)n2)cc(C)c1F` [Compound I-492, 7-fluoro-5-(2-(4-fluoro-3-methoxy-5-methylphenylamino)-5-methylpyrimidin-4-ylamino)benzo[d]oxazol-2(3H)-one], the IC50 is less than 500 nM. With `Cc1cnc(Nc2ccc(C(C)NC(C)C)cc2)nc1Nc1ccc2oc(=O)[nH]c2c1` (stereo not drawn) [Compound I-207, 5-(2-(4-(1-(isopropylamino)ethyl)phenylamino)-5-methylpyrimidin-4-ylamino)benzo[d]oxazol-2(3H)-one], the IC50 was less than 500 nM. Turning to `CCc1cccc(Nc2ncc(C)c(Nc3ccc4oc(=O)[nH]c4c3)n2)c1` [Compound I-503, 5-(2-(3-ethylphenylamino)-5-methylpyrimidin-4-ylamino)benzo[d]oxazol-2(3H)-one], the IC50 is less than 500 nM.

Consider `COc1cc(Nc2ncc(C)c(Nc3cc(C)c4oc(=O)[nH]c4c3)n2)cc(C(F)(F)F)c1` [Compound I-427, 5-(2-(3-methoxy-5-(trifluoromethyl)phenylamino)-5-methylpyrimidin-4-ylamino)-7-methylbenzo[d]oxazol-2(3H)-one], for which the IC50 was more than 10000 nM.

Take `Cc1cnc(Nc2cccc(C(C)N3CCOCC3)c2)nc1Nc1ccc2oc(=O)[nH]c2c1` (stereo not drawn) [Compound I-217, 5-(5-methyl-2-(3-(1-morpholinoethyl)phenylamino)pyrimidin-4-ylamino)benzo[d]oxazol-2(3H)-one]: the 50% inhibitory concentration (IC50) is less than 500 nM.

With `Cc1cnc(Nc2cc(C(=O)NC3CCC3)cc(C(F)(F)F)c2)nc1Nc1ccc2oc(=O)[nH]c2c1` [Compound I-469, N-Cyclobutyl-3-[5-methyl-4-(2-oxo-2,3-dihydro-benzooxazol-5-ylamino)-pyrimidin-2-ylamino]-5-trifluoromethyl-benzamide], the half-maximal inhibitory concentration (IC50) was less than 500 nM. Regarding `Cc1cnc(Nc2cnc(C3CC4CCC(C3)N4C(=O)C(F)(F)F)c(C)c2)nc1Nc1ccc2oc(=O)[nH]c2c1` (stereo not drawn) [II-69, 5-(5-methyl-2-(5-methyl-6-(8-(2,2,2-trifluoroacetyl)-8-aza-bicyclo[3.2.1]octan-3-yl)pyridin-3-ylamino)pyrimidin-4-ylamino)benzo[d]oxazol-2(3H)-one], the IC50 is less than 500 nM. The same measure, in the same setting: then `Cc1cnc(Nc2ccc3c(c2)OC(C)(C)C(=O)N3)nc1Nc1ccc2oc(=O)[nH]c2c1` [IV-50, N2-[2,2-dimethyl-2H-1,4-benzoxazin-3(4H)-one-7-yl]-5-methyl-N4-(2-oxo-2,3-dihydro-1,3-benzoxazol-5-yl)-2,4-pyrimidinediamine], with less than 500 nM; and `Cc1cnc(Nc2ccc(NS(C)(=O)=O)nc2)nc1Nc1ccc2oc(=O)[nH]c2c1` [II-78, N-(5-(5-methyl-4-(2-oxo-2,3-dihydrobenzo[d]oxazol-5-ylamino)pyrimidin-2-ylamino)pyridin-2-yl)methanesulfonamide], with less than 500 nM; and `Cc1cnc(Nc2ccc3ccccc3c2)nc1Nc1ccc2oc(=O)[nH]c2c1` [IV-54, 5-[5-Methyl-2-(naphthalen-2-ylamino)-pyrimidin-4-ylamino]-3H-benzooxazol-2-one], with less than 500 nM.

The same assay, now with this note: tested under conditions described in Example 3 (IL-2 stimulated human primary T-cell proliferation); read-out: ability to inhibit JAK3 activity, IC50 range (Table V).
As for `Cc1cnc(Nc2ccc(F)c(NS(C)(=O)=O)c2)nc1Nc1ccc2[nH]c(=O)oc2c1` [Compound I-105, N2-((4-fluoro-3-methylsulfonylamino)phenyl)-N4-(2-oxo-2,3-dihydrobenzo[d]oxazol-6-yl)-5-methylpyrimidine-2,4-diamine], the 50% inhibitory concentration (IC50) was more than 10000 nM. For the compound `Cc1cnc(Nc2ccc(NS(C)(=O)=O)cc2)nc1Nc1ccc2c(c1)n(C)c(=O)n2C` [Compound I-38, N4-(1,3-dimethylbenzimidazolin-2-on-5-yl)-N2-((4-methylsulfonylamino)phenyl)-5-methylpyrimidine-2,4-diamine], the IC50 was less than 500 nM. For `Cc1cnc(Nc2cccc(-c3cnco3)c2)nc1Nc1ccc2oc(=O)[nH]c2c1` [Compound I-286, 5-methyl-N2-[3-(1,3-oxazol-5-yl)]phenyl-N4-(2-oxo-2,3-dihydro-1,3-benzoxazol-5-yl)-2,4-pyrimidinediamine], the IC50 is less than 500 nM.

Consider `CS(=O)(=O)c1ccc(Nc2ncc(F)c(Nc3ccc4[nH]c(=O)[nH]c4c3)n2)cc1` [Compound I-23, N4-(benzimidazolin-2-on-5-yl)-N2-(4-methylsulfonyl)phenyl-5-fluoropyrimidine-2,4-diamine], for which the IC50 is more than 10000 nM.

Turning to `Cc1cnc(Nc2ccc(S(N)(=O)=O)cc2)nc1Nc1ccc2c(c1)n(C)c(=O)n2C` [Compound I-35, N4-(1,3-dimethylbenzimidazolin-2-on-5-yl)-N2-((4-aminosulfonyl)phenyl)-5-methylpyrimidine-2,4-diamine], the IC50 was more than 10000 nM. Consider `Cc1cnc(Nc2ccc(S(=O)(=O)NC(C)(C)C)cc2)nc1Nc1ccc2oc(=O)[nH]c2c1` [Compound I-112, N4-(benzoxazolin-2-on-5-yl)-N2-[4-N-(t-butyl)aminosulfonylphenyl]-5-methylpyrimidine-2,4-diamine], for which the IC50 is less than 500 nM. As for `Cc1cc(Nc2ncc(C)c(Nc3ccc4oc(=O)[nH]c4c3)n2)cc(C(F)(F)F)c1` [Compound I-479, 5-methyl-N2-(3-methyl-5-trifluoromethyl)phenyl-N4-(2-oxo-2,3-dihydro-1,3-benzoxazol-5-yl)-2,4-pyrimidinediamine], the IC50 is less than 500 nM. For `COc1ccc(Nc2ncc(C)c(Nc3ccc4oc(=O)[nH]c4c3)n2)cc1OCC(=O)NC1CC1` [Compound I-293, N2-[3-(cyclopropylaminocarbonylmethoxy)-4-methoxy]phenyl-5-methyl-N4-(2-oxo-2,3-dihydro-1,3-benzoxazol-5-yl)-2,4-pyrimidinediamine], the IC50 is less than 500 nM. As to `Cc1cnc(Nc2ccc(-c3cccnc3)cc2)nc1Nc1ccc2oc(=O)[nH]c2c1` [Compound I-291, 5-methyl-N4-(2-oxo-2,3-dihydro-1,3-benzoxazol-5-yl)-N2-[4-(pyridin-3-yl)]phenyl-2,4-pyrimidinediamine], the IC50 was less than 500 nM. On the same count and under the same terms, then `Cc1cnc(Nc2cccc(S(N)(=O)=O)c2)nc1Nc1ccc2oc(=O)n(C)c2c1` [Compound I-67, N2-((3-aminosulfonyl)phenyl)-N4-(3-methyl-2-oxo-2,3-dihydrobenzo[d]oxazol-5-yl)-5-methylpyrimidine-2,4-diamine], with less than 500 nM; and `CS(=O)(=O)Nc1cccc(Nc2ncc(F)c(Nc3ccc4oc(=O)[nH]c4c3)n2)c1` [Compound I-56], with less than 500 nM; and `COc1c(C(C)C)cc(Nc2ncc(C)c(Nc3ccc4oc(=O)[nH]c4c3)n2)cc1C(C)C` [Compound I-371, N2-(3,5-diisopropyl-4-methoxy)phenyl-5-methyl-N4-(2-oxo-2,3-dihydro-1,3-benzoxazol-5-yl)-2,4-pyrimidinediamine], with 500 to 5000 nM. Still for that read-out and setting: the value for `Cc1cnc(Nc2cccc(S(C)(=O)=O)c2)nc1Nc1ccc2oc(=O)n(C)c2c1` [Compound I-69, N2-((3-methylsulfonyl)phenyl)-N4-(3-methyl-2-oxo-2,3-dihydrobenzo[d]oxazol-5-yl)-5-methylpyrimidine-2,4-diamine] was less than 500 nM; that for `CNC(=O)COc1cccc(Nc2ncc(C)c(Nc3ccc4oc(=O)[nH]c4c3)n2)c1C` [Compound I-325, 5-methyl-N2-(2-methyl-3-methylaminocarbonylmethoxy)phenyl-N4-(2-oxo-2,3-dihydro-1,3-benzoxazol-5-yl)-2,4-pyrimidinediamine] was 500 to 5000 nM. With `COc1cc(F)cc(Nc2ncc(C)c(Nc3ccc4oc(=O)[nH]c4c3)n2)c1` [Compound I-352, N2-(3-fluoro-5-methoxy)phenyl-5-methyl-N4-(2-oxo-2,3-dihydro-1,3-benzoxazol-5-yl)-2,4-pyrimidinediamine], the IC50 was less than 500 nM. Still for that read-out and setting: the value for `Cn1c(=O)oc2cc(Nc3nc(Nc4ccc(S(N)(=O)=O)cc4)ncc3F)ccc21` [Compound I-58] was more than 10000 nM; that for `Cc1cnc(Nc2cccc(S(N)(=O)=O)c2)nc1Nc1ccc2c(c1)n(C)c(=O)n2C` [Compound I-34, N4-(1,3-dimethylbenzimidazolin-2-on-5-yl)-N2-((3-aminosulfonyl)phenyl)-5-methylpyrimidine-2,4-diamine] was less than 500 nM.

Usually IC50 stands for the concentration at which inhibition is half-maximal.
